For this test, the target named is GCN2 (Homo sapiens, UniProt Q9P2K8). Description: GCN2 enzymatic endpoint assay: phosphorylation of GFP-eIF2α measured by TR-FRET (Lanthascreen). In kind it is biochemical. The conditions noted are these: tested as described in Example 77; compound and/or hydrochloride, dihydrochloride or trifluoroacetic acid salt; read-out: IC 50 Activity. A digest of the protocol:
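Phosphorylated eIF2α read by Lanthascreen TR-FRET (acceptor 520 nm over donor 495 nm) after EDTA stop. The reaction ran 90 min at room temperature on 80 nM GFP-eIF2α with 2 μM ATP.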
Background: TR-FRET usually uses a lanthanide donor and a delayed reading to cut background.

Some results are limits rather than exact numbers.

Chain of GCN2 (Q9P2K8 whole entry): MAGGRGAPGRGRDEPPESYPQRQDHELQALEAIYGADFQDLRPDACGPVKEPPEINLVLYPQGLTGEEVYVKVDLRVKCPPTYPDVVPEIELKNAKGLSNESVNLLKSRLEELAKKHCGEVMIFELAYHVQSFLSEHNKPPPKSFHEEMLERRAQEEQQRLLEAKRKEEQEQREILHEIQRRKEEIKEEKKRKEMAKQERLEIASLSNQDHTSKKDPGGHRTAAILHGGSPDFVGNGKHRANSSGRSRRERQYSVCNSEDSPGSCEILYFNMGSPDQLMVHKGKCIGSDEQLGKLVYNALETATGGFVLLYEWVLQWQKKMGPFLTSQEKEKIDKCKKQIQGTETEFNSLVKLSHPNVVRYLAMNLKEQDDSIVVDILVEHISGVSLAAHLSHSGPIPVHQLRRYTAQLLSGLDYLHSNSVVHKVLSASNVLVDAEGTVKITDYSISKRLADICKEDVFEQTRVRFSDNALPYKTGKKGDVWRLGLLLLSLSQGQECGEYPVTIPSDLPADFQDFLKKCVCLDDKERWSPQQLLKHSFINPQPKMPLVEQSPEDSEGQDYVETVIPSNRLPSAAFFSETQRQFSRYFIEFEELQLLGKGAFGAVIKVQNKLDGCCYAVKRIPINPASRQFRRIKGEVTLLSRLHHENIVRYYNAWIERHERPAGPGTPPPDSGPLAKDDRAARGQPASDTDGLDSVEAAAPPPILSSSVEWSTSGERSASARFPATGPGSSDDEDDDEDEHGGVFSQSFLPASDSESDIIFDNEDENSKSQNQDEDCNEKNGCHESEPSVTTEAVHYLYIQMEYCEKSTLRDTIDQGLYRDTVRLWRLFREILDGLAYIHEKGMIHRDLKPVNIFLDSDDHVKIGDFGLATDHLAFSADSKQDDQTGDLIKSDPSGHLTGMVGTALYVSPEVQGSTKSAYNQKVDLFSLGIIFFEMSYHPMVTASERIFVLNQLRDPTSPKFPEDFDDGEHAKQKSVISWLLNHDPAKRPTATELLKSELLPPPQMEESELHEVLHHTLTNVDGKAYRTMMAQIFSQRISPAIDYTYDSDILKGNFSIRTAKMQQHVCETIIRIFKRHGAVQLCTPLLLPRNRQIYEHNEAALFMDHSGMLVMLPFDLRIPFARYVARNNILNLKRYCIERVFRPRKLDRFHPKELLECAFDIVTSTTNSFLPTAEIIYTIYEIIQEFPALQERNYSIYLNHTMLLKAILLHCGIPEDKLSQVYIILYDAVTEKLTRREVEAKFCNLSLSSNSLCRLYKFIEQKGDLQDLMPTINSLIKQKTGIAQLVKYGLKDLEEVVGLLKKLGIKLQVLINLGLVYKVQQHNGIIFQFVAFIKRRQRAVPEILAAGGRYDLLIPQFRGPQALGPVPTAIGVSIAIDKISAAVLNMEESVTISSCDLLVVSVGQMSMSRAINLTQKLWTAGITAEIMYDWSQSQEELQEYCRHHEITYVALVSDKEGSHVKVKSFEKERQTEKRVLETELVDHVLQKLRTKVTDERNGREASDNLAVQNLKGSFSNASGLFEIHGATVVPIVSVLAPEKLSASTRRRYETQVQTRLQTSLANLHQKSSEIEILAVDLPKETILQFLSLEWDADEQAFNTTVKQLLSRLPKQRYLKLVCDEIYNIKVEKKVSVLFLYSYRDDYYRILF

As for `CNC(=O)[C@]1(C)CC[C@@H](Nc2ncc3c(Br)nn(-c4ccc(C#N)c(OCC(C)O)c4)c3n2)C1` (stereo partly drawn) [(1R,3R)-3-[[3-bromo-1-[4-cyano-3-(2-hydroxypropoxy)phenyl]pyrazolo [3,4-d]pyrimidin-6-yl]amino]-N,1-dimethyl-cyclopentanecarboxamide], the IC50 lay in the range of 25 to 200 nM.
Turning to `CNC(=O)[C@]1(C)CC[C@@H](Nc2ncc3c(Br)nn(-c4ccc(C#N)c(OCCOC)c4)c3n2)C1` [(1R,3R)-3-[[3-bromo-1-[4-cyano-3-(2-methoxyethoxy)phenyl]pyrazolo[3,4-d]pyrimidin-6-yl]amino]-N,1-dimethyl-cyclopentanecarboxamide], the IC50 fell in the range of 25 to 200 nM.
As for `CNC(=O)[C@]1(C)CC[C@@H](Nc2ncc3c(Br)nn(-c4ccc(C#N)c(CO)c4)c3n2)C1` [(1R,3R)-3-[[3-bromo-1-[4-cyano-3-(hydroxymethyl)phenyl]pyrazolo[3,4-d]pyrimidin-6-yl]amino]-N,1-dimethyl-cyclopentanecarboxamide], the IC50 lay in the range of 25 to 200 nM.
For `CNC(=O)[C@]1(C)CC[C@@H](Nc2ncc3c(Br)nn(-c4ccc(C#N)c(CNS(C)(=O)=O)c4)c3n2)C1` [(1R,3R)-3-[[3-bromo-1-[4-cyano-3-(methanesulfonamidomethyl)phenyl]pyrazolo[3,4-d]pyrimidin-6-yl]amino]-N,1-dimethyl-cyclopentanecarboxamide], the IC50 was 25 to 200 nM.
Consider `CNC(=O)[C@]1(C)CC[C@@H](Nc2ncc3c(Br)nn(-c4ccc(C#N)c(OCC5(F)CNC5)c4)c3n2)C1` [(1R,3R)-3-[[3-bromo-1-[4-cyano-3-[(3-fluoroazetidin-3-yl)methoxy]phenyl]pyrazolo[3,4-d]pyrimidin-6-yl]amino]-N,1-dimethyl-cyclopentanecarboxamide], for which the IC50 was in the range of 25 to 200 nM.
With `CNC(=O)[C@]1(C)CC[C@@H](Nc2ncc3c(Br)nn(-c4ccc(-c5ncco5)c(C5CCCNC5)c4)c3n2)C1` (stereo partly drawn) [(1R,3R)-3-[[3-bromo-1-[4-oxazol-2-yl-3-(3-piperidyl)phenyl]pyrazolo[3,4-d]pyrimidin-6-yl]amino]-N,1-dimethyl-cyclopentanecarboxamide], the IC50 is 25 to 200 nM.
On to `CNC(=O)[C@]1(C)CC[C@@H](Nc2ncc3c(Br)nn(-c4ccc(-c5ncco5)c(C5CCNCC5)c4)c3n2)C1` [(1R,3R)-3-[[3-bromo-1-[4-oxazol-2-yl-3-(4-piperidyl)phenyl]pyrazolo[3,4-d]pyrimidin-6-yl]amino]-N,1-dimethyl-cyclopentanecarboxamide], for which the IC50 was in the range of 25 to 200 nM.
For `CNC(=O)[C@]1(C)CC[C@@H](Nc2ncc3c(Br)nn(-c4ccc(-c5ncco5)c([C@H]5CCNC5)c4)c3n2)C1` [(1R,3R)-3-[[3-bromo-1-[4-oxazol-2-yl-3-[(3R)-pyrrolidin-3-yl]phenyl]pyrazolo[3,4-d]pyrimidin-6-yl]amino]-N,1-dimethyl-cyclopentane-carboxamide], the IC50 is 25 to 200 nM.
The figure for `CNC(=O)[C@]1(C)CC[C@@H](Nc2ncc3c(Br)nn(-c4ccc(-c5ncco5)c([C@@H]5CCNC5)c4)c3n2)C1` [(1R,3R)-3-[[3-bromo-1-[4-oxazol-2-yl-3-[(3S)-pyrrolidin-3-yl]phenyl]pyrazolo[3,4-d]pyrimidin-6-yl]amino]-N,1-dimethyl-cyclopentanecarboxamide] is less than 25 nM; for `CNC(=O)[C@]1(C)CC[C@@H](Nc2ncc3c(Br)nn(-c4cc5c(c(OCC(F)F)c4)N(C)C(=O)CO5)c3n2)C1` [(1R,3R)-3-[[3-bromo-1-[5-(2,2-difluoro-ethoxy)-4-methyl-3-oxo-1,4-benzoxazin-7-yl]pyrazolo[3,4-d]pyrimidin-6-yl]amino]-N,1-dimethyl-cyclopentanecarboxamide] it is less than 25 nM; for `CNC(=O)[C@]1(C)CC[C@@H](Nc2ncc3c(Br)nn(-c4cc(OCCO)c5c(c4)OCC(=O)N5C)c3n2)C1` [(1R,3R)-3-[[3-bromo-1-[5-(2-hydroxyethoxy)-4-methyl-3-oxo-1,4-benzoxazin-7-yl]pyrazolo [3,4-d]pyrimidin-6-yl]amino]-N,1-dimethyl-cyclopentanecarboxamide] it is less than 25 nM.
The figure for `CNC(=O)[C@]1(C)CC[C@@H](Nc2ncc3c(Br)nn(-c4cc(OCC#N)c5c(c4)OCC(=O)N5C)c3n2)C1` [(1R,3R)-3-[[3-bromo-1-[5-(cyano-methoxy)-4-methyl-3-oxo-1,4-benzoxazin-7-yl]pyrazolo[3,4-d]pyrimidin-6-yl]amino]-N,1-dimethyl-cyclopentane-carboxamide] is less than 25 nM; for `CNC(=O)[C@]1(C)CC[C@@H](Nc2ncc3c(Br)nn(-c4ccc(-c5nnc(C)o5)nc4)c3n2)C1` [(1R,3R)-3-[[3-bromo-1-[6-(5-methyl-1,3,4-oxadiazol-2-yl)-3-pyridyl]pyrazolo [3,4-d]pyrimidin-6-yl]amino]-N,1-dimethyl-cyclopentanecarboxamide] it is 25 to 200 nM; for `CNC(=O)[C@]1(C)CC[C@@H](Nc2ncc3c(Br)nn(-c4cc(C(C)(C)O)c5ncccc5c4)c3n2)C1` [(1R,3R)-3-[[3-bromo-1-[8-(1-hydroxy-1-methyl-ethyl)-6-quinolyl]pyrazolo[3,4-d]pyrimidin-6-yl]amino]-N,1-dimethyl-cyclopentanecarboxamide] it is 25 to 200 nM.
As to `CNC(=O)[C@]1(C)CC[C@@H](Nc2ncc3c(Br)nn(-c4cc(C(C)O)c5nccnc5c4)c3n2)C1` (stereo partly drawn) [(1R,3R)-3-[[3-bromo-1-[8-(1-hydroxy-ethyl)quinoxalin-6-yl]pyrazolo[3,4-d]pyrimidin-6-yl]amino]-N,1-dimethyl-cyclopentanecarboxamide], the IC50 fell in the range of 25 to 200 nM.
In the case of `CNC(=O)[C@]1(C)CC[C@@H](Nc2ncc3c(Br)nn(-c4cc(C5=CCNC5)c5ncccc5c4)c3n2)C1` [(1R,3R)-3-[[3-bromo-1-[8-(2,5-dihydro-1H-pyrrol-3-yl)-6-quinolyl]pyrazolo [3,4-d]pyrimidin-6-yl]amino]-N,1-dimethyl-cyclopentanecarboxamide] it was 25 to 200 nM; in that of `CNC(=O)[C@]1(C)CC[C@@H](Nc2ncc3c(Br)nn(-c4cc(CCC#N)c5c(c4)CCC(=O)N5C)c3n2)C1` [(1R,3R)-3-[[3-bromo-1-[8-(2-cyanoethyl)-1-methyl-2-oxo-3,4-dihydroquinolin-6-yl]pyrazolo[3,4-d]pyrimidin-6-yl]amino]-N,1-dimethyl-cyclopentanecarboxamide], 25 to 200 nM.
Turning to `CNC(=O)[C@]1(C)CC[C@@H](Nc2ncc3c(Br)nn(-c4cc(CCC#N)c5ncccc5c4)c3n2)C1` [(1R,3R)-3-[[3-bromo-1-[8-(2-cyanoethyl)-6-quinolyl]pyrazolo[3,4-d]pyrimidin-6-yl]amino]-N,1-dimethyl-cyclopentane-carboxamide], the IC50 was less than 25 nM.
Regarding `CNC(=O)[C@]1(C)CC[C@@H](Nc2ncc3c(Br)nn(-c4cc(C(C)CO)c5ncccc5c4)c3n2)C1` (stereo partly drawn) [(1R,3R)-3-[[3-bromo-1-[8-(2-hydroxy-1-methyl-ethyl)-6-quinolyl]pyrazolo[3,4-d]pyrimidin-6-yl]amino]-N,1-dimethyl-cyclopentanecarboxamide], the IC50 is less than 25 nM.
With `CNC(=O)[C@]1(CC(F)F)CC[C@@H](Nc2ncc3c(Br)nn(-c4cc(CC(C)(C)O)c5ncccc5c4)c3n2)C1` [(1R,3R)-3-[[3-bromo-1-[8-(2-hydroxy-2-methyl-propyl)-6-quinolyl]pyrazolo[3,4-d]pyrimidin-6-yl]amino]-1-(2,2-difluoroethyl)-N-methyl-cyclopentanecarboxamide], the IC50 was 25 to 200 nM.
